Test results: patent US20250325677A1, “STAT6 DEGRADERS” (Gilead Sciences, Inc., priority 2024, published 2025)

The compounds below were run on eotaxin-3 release (assay: Human whole blood eotaxin-3 assay (IL-4 stimulated)). Settings: human whole blood, IL-4 0.4 nM, 48 hours; geometric mean; given for compounds with >80% Emax; read-out: Eotaxin-3 EC50.
Assay type: cell-based
Procedure: Human Whole Blood Eotaxin-3 Assay
This was a human whole blood assay using recombinant human Interleukin 4 to stimulate the blood and measuring the ability of the test compounds to inhibit eotaxin-3 release. Compounds or media were added to the wells and incubated together with human whole blood for 120 minutes at 37° C. Subsequently, recombinant IL-4 was added at a final concentration of 0.4 nM. The plates were incubated for 48 hours.
Test compounds which inhibited eotaxin-3 release upon stimulation with human IL-4 (E. coli) interfered with the signaling in human whole blood are expected to have activity in human beings. […] The EC50 value indicates at which concentration test compounds were active and in inhibiting the eotaxin-3 release. As eotaxin-3 release is down-stream of STAT6 signaling both STAT6 inhibitors and STAT6 degraders are active in this assay.
The data from the human whole blood eotaxin-3 assay is shown below for Examples 3e27, 3e50, 3e17, and 3e51 (where the effect in % is plotted against the test concentration in M on a log-scale).
For `CC[C@H]1CN(Cc2ccc3c(c2)n(C)c(=O)n3[C@@H]2CCC(=O)NC2=O)CCN1CC1CCN(C(=O)c2ccc(C3CCN([C@@H](C)c4cc5c(-c6ccc(N)nc6)ccnc5n4C)CC3)cc2)CC1` (single isomer, unassigned) [Example 3e57], the EC50 was 4.4 nM. `CC[C@H]1CN(Cc2ccc3c(c2)n(C)c(=O)n3[C@H]2CCC(=O)NC2=O)CCN1CC1CCN(C(=O)c2ccc(C3CCN([C@@H](C)c4cc5c(-c6ccc(N)nc6)ccnc5n4C)CC3)cc2)CC1` (single isomer, unassigned) [Example 3e59] was tested, and the EC50 was 8.4 nM. `CNc1ccc(-c2ccnc3c2cc([C@H](C)N2CC=C(c4c(C)cc(C(=O)N5CCC(CN6CCN(Cc7ccc8c(c7)C7(CC7)C(=O)N8C7CCC(=O)NC7=O)C[C@@H]6C)CC5)cc4F)CC2)n3C)cn1` (stereo partly drawn) [Example 3h20, 3-(5′-(((S)-4-((1-(3-fluoro-5-methyl-4-(1-((S)-1-(1-methyl-4-(6-(methylamino)pyridin-3-yl)-1H-pyrrolo[2,3-b]pyridin-2-yl)ethyl)-1,2,3,6-tetrahydropyridin-4-yl)benzoyl)piperidin-4-yl)methyl)-3-methylpiperazin-1-yl)methyl)-2′-oxospiro[cyclopropane-1,3′-indolin]-1′-yl)piperidine-2,6-dione] showed an EC50 of 3.6 nM. Compound `C[C@H]1CN(Cc2ccc3c(c2)C2(CC2)C(=O)N3C2CCC(=O)NC2=O)CCN1CC1CCN(C(=O)c2ccc(C3CCN([C@@H](C)c4cc5c(-c6ccc(N)nc6)ccnc5n4C)CC3)cc2)CC1` (stereo partly drawn) [Example 3h29, 3-(5′-(((S)-4-((1-(4-(1-((S)-1-(4-(6-aminopyridin-3-yl)-1-methyl-1H-pyrrolo[2,3-b]pyridin-2-yl)ethyl)piperidin-4-yl)benzoyl)piperidin-4-yl)methyl)-3-methylpiperazin-1-yl)methyl)-2′-oxospiro[cyclopropane-1,3′-indolin]-1′-yl)piperidine-2,6-dione] has an EC50 of 2.6 nM. `C[C@H]1CN(Cc2cc3c(cc2F)N(C2CCC(=O)NC2=O)C(=O)C3(C)C)CCN1CC1CCN(C(=O)c2ccc(C3CCN([C@@H](C)c4cc5c(-c6ccc(N)nc6)ccnc5n4C)CC3)cc2)CC1` (stereo partly drawn) [Example 3h35, 3-(5-(((S)-4-((1-(4-(1-((S)-1-(4-(6-aminopyridin-3-yl)-1-methyl-1H-pyrrolo[2,3-b]pyridin-2-yl)ethyl)piperidin-4-yl)benzoyl)piperidin-4-yl)methyl)-3-methylpiperazin-1-yl)methyl)-6-fluoro-3,3-dimethyl-2-oxoindolin-1-yl)piperidine-2,6-dione] gave an EC50 of 31.7 nM.

These compounds were tested against STAT6 (Homo sapiens (Human), UniProt P42226) (assay: STAT6 degrader assay (HiBiT, HeLa LgBiT clone 4.14)). Settings: HeLa LgBiT clone 4.14, 4-24 h; geometric mean; given for compounds with >80% Emax; read-out: STAT6 degradation DC50.
Chain of STAT6 (P42226 whole entry): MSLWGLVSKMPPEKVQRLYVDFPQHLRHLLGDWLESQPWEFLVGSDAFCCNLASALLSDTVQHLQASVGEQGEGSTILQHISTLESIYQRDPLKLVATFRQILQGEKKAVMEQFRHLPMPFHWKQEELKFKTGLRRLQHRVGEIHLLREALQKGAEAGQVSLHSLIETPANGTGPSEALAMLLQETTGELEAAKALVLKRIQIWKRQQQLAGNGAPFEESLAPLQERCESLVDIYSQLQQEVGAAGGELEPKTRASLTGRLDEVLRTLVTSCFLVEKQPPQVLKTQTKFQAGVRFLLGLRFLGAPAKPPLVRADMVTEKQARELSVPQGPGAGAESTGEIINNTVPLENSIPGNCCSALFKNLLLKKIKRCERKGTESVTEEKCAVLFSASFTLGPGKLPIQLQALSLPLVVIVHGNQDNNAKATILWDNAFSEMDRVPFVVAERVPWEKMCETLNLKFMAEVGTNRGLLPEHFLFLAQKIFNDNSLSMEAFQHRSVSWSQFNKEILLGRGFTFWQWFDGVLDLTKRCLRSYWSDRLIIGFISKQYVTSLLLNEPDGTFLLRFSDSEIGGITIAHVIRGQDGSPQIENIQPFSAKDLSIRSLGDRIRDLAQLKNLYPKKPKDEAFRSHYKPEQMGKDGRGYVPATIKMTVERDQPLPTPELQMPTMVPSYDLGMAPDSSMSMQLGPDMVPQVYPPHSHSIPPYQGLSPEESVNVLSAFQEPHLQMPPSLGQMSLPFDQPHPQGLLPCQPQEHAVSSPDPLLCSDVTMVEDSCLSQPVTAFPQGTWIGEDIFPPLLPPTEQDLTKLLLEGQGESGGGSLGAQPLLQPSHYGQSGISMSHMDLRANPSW
Assay type: cell-based
Procedure, shortened: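 HeLa LgBiT clone 4.14 cells with HiBiT knocked into endogenous STAT6 were treated with compound for 4-24 h at 37° C. Luminescence after Nano-GLO substrate (0.5 h) measured remaining STAT6; 50 μM terfenadine wells defined 100% degradation, and DC50 (nM) was derived.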
`COCc1nc2cc(-c3ccnc4c3cc(CN3CCC(c5ccc(C(=O)N6CCC(CN7CCN(Cc8ccc9c(c8)oc(=O)n9C8CCC(=O)NC8=O)CC7)CC6)cc5)CC3)n4C)ccc2[nH]1` (stereo not shown) [Example 3n2, 3-(6-((4-((1-(4-(1-((4-(2-(methoxymethyl)-1H-benzo[d]imidazol-5-yl)-1-methyl-1H-pyrrolo[2,3-b]pyridin-2-yl)methyl)piperidin-4-yl)benzoyl)piperidin-4-yl)methyl)piperazin-1-yl)methyl)-2-oxobenzo[d]-oxazol-3 (2H)-yl)piperidine-2,6-dione] was tested, and the DC50 was 1.1 nM. Compound `CN(C(=O)c1ccc(C2CCN(Cc3cc4c(-c5ccc(N)nc5)ccnc4n3C)CC2)cc1)c1ccc(C2CCN(Cc3ccc4c(c3)oc(=O)n4C3CCC(=O)NC3=O)CC2)cc1` (stereo not shown) [Example 3n3, 4-(1-((4-(6-aminopyridin-3-yl)-1-methyl-1H-pyrrolo[2,3-b]pyridin-2-yl)methyl)piperidin-4-yl)-N-(4-(1-((3-(2,6-dioxopiperidin-3-yl)-2-oxo-2,3-dihydrobenzo[d]oxazol-6-yl)methyl)piperidin-4-yl)phenyl)-N-methylbenzamide] has a DC50 of 0.1 nM. Work on `COCc1nc2cc(-c3ccnc4c3cc(CN3CCC(c5ccc(C(=O)N(C)c6ccc(C7CCN(Cc8ccc9c(c8)oc(=O)n9C8CCC(=O)NC8=O)CC7)cc6)cc5)CC3)n4C)ccc2[nH]1` (stereo not shown) [Example 3n4, N-(4-(1-((3-(2,6-dioxopiperidin-3-yl)-2-oxo-2,3-dihydrobenzo[d]oxazol-6-yl)methyl)piperidin-4-yl)phenyl)-4-(1-((4-(2-(methoxymethyl)-1H-benzo[d]imidazol-5-yl)-1-methyl-1H-pyrrolo[2,3-b]pyridin-2-yl)methyl)piperidin-4-yl)-N-methylbenzamide] yielded a DC50 of 0.1 nM.

Same assay, conditions: HeLa LgBiT clone 4.14, 4-24 h; read-out: STAT6 degradation Emax (%)
In the case of `Cn1c(CN2CCC(c3ccc(C(=O)N4CCC(CN5CCN(Cc6ccc7c(c6)oc(=O)n7C6CCC(=O)NC6=O)CC5)CC4)cc3)CC2)cc2c(-c3ccc(N)nc3)ccnc21` (stereo not shown) [Example 3n1, 3-(6-((4-((1-(4-(1-((4-(6-aminopyridin-3-yl)-1-methyl-1H-pyrrolo[2,3-b]pyridin-2-yl)methyl)piperidin-4-yl)benzoyl)piperidin-4-yl)methyl)piperazin-1-yl)methyl)-2-oxobenzo[d]oxazol-3 (2H)-yl)piperidine-2,6-dione], the Emax is reported as 60 to 70%. `COCc1nc2cc(-c3ccnc4c3cc(CN3CCC(c5ccc(C(=O)N6CCC(CN7CCN(Cc8ccc9c(c8)n(C8CCC(=O)NC8=O)c(=O)n9C)CC7)CC6)cc5)CC3)n4C)ccc2[nH]1` (stereo not shown) [Example 3o1, 3-(6-((4-((1-(4-(1-((4-(2-(methoxymethyl)-1H-benzo[d]imidazol-5-yl)-1-methyl-1H-pyrrolo[2,3-b]pyridin-2-yl)methyl)piperidin-4-yl)benzoyl)piperidin-4-yl)methyl)piperazin-1-yl)methyl)-3-methyl-2-oxo-2,3-dihydro-1H-benzo[d]imidazol-1-yl)piperidine-2,6-dione] was tested, and the Emax was < 20%. In the case of `Cn1c(CN2CCC(c3ccc(C(=O)N4CCC(CN5CCN(Cc6ccc7c(c6)n(C6CCC(=O)NC6=O)c(=O)n7C)CC5)CC4)cc3)CC2)cc2c(-c3ccc(N)nc3)ccnc21` (stereo not shown) [Example 3o2, 3-(6-((4-((1-(4-(1-((4-(6-aminopyridin-3-yl)-1-methyl-1H-pyrrolo[2,3-b]pyridin-2-yl)methyl)piperidin-4-yl)benzoyl)piperidin-4-yl)methyl)piperazin-1-yl)methyl)-3-methyl-2-oxo-2,3-dihydro-1H-benzo[d]imidazol-1-yl)piperidine-2,6-dione], the Emax is reported as < 20%. For `Cn1c(CN2CCC(c3ccc(C(=O)N4CCC(CN5CCC(c6cccc7c6n(C)c(=O)n7C6CCC(=O)NC6=O)CC5)CC4)cc3)CC2)cc2c(-c3ccc4[nH]ncc4c3)ccnc21` (stereo not shown) [Example 3t1, 3-(4-(1-((1-(4-(1-((4-(1H-indazol-5-yl)-1-methyl-1H-pyrrolo[2,3-b]pyridin-2-yl)methyl)piperidin-4-yl)benzoyl)piperidin-4-yl)methyl)piperidin-4-yl)-3-methyl-2-oxo-2,3-dihydro-1H-benzo[d]imidazol-1-yl)piperidine-2,6-dione], the Emax was < 20%. `Cn1c(CN2CCC(c3ccc(C(=O)N4CCC(Cn5cc(-c6cccc7c6n(C)c(=O)n7C6CCC(=O)NC6=O)nn5)CC4)cc3)CC2)cc2c(-c3ccc4[nH]ncc4c3)ccnc21` (stereo not shown) [Example 3t2, 3-(4-(1-((1-(4-(1-((4-(1H-indazol-5-yl)-1-methyl-1H-pyrrolo[2,3-b]pyridin-2-yl)methyl)piperidin-4-yl)benzoyl)piperidin-4-yl)methyl)-1H-1,2,3-triazol-4-yl)-3-methyl-2-oxo-2,3-dihydro-1H-benzo[d]imidazol-1-yl)piperidine-2,6-dione] was tested, and the Emax was < 20%.
